Data from patent US20200291018A1, “TAM KINASE INHIBITORS” (SYROS PHARMACEUTICALS, INC., priority 2017, published 2020).

Legend:
MERTK = biological target: T1, MERTK (Homo sapiens, UniProt Q12866); experiment: TR-FRET kinase activity assay, MERTK; assay type: biochemical; details: for IC50: TR-FRET activity assay, ATP at Km, 60 minutes, read-out: Mer IC50; for Mer/Flt3 ratio (FLT3 IC50/Mer IC50): ratio calculated as FLT3 IC50/Mer IC50
T1 sequence (Q12866 21-999): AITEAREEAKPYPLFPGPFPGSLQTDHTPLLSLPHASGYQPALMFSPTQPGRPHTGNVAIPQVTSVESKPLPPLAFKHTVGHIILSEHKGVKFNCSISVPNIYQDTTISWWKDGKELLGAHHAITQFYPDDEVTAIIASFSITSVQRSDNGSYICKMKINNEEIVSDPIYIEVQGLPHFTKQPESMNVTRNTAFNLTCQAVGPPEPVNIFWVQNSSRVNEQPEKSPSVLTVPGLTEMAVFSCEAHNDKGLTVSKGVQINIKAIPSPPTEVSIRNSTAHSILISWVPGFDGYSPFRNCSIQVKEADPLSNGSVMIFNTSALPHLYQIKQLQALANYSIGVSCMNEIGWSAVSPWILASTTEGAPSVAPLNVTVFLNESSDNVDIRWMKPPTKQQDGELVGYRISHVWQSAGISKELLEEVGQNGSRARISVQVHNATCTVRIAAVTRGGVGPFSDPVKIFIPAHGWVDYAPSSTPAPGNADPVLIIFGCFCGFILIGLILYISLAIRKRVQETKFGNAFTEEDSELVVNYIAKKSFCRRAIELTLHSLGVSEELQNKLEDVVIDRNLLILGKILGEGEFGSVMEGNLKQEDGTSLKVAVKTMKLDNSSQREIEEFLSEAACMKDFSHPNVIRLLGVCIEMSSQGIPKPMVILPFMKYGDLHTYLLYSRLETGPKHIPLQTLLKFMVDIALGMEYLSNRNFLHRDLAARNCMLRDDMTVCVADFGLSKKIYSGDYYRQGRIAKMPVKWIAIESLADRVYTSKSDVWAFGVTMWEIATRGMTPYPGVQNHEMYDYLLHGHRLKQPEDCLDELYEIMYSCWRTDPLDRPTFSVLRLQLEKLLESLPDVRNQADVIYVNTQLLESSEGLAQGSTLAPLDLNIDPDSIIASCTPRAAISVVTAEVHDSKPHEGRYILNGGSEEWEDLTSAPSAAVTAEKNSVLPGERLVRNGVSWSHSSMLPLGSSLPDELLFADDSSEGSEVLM
How it was run: (§1)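 IC50s come from loss of TR-FRET between a Eu-labeled phospho-site antibody and fluorescent tyrosine-phosphorylated peptide. Kinase reactions, initiated with Km ATP, ran 60 min at RT at pH 7.5 before EDTA quench.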

TYRO3 = biological target: T2, TYRO3 (Homo sapiens, UniProt Q06418); experiment: TR-FRET kinase activity assay, TYRO3; assay type: biochemical; details: ATP at Km, 60 minutes
T2 sequence (Q06418 41-890): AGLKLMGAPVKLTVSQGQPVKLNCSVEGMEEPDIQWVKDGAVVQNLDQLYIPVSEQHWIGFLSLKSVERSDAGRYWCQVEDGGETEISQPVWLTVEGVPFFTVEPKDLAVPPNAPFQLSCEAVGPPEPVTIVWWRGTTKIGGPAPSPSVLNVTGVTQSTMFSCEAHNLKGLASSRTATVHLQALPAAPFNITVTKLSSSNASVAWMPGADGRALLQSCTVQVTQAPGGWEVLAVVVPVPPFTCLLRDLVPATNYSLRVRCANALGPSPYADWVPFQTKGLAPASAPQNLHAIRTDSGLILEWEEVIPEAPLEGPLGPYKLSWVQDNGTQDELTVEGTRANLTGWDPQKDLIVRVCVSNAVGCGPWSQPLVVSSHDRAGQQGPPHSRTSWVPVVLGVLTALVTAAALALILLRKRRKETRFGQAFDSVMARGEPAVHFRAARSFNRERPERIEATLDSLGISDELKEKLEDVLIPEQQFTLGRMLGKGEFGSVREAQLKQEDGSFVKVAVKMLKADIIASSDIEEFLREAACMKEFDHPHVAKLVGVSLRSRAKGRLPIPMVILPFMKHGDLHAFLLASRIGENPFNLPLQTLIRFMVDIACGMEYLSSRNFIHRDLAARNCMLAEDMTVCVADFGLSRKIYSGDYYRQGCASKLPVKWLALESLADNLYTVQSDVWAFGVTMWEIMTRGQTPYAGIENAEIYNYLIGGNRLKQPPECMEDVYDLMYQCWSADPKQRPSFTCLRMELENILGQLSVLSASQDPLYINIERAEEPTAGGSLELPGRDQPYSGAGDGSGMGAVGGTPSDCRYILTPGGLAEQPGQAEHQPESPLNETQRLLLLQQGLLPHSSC
How it was run: as §1

Row | Structure (SMILES) | IC50 (MERTK) [nM] | Mer/Flt3 ratio (FLT3 IC50/Mer IC50) (MERTK) | IC50 (TYRO3) [nM]
1 | CCCC(C)Nc1ncc2c(OC3CCC(F)(F)CC3)ncc([C@H]3CC[C@H](O)CC3)c2n1 (stereo partly drawn) [Compound 153] | ≤ 100 | +++ (a ratio of >100) | 100 to 1000
2 | CCCC(C)Nc1ncc2c(NC3CCN(C)CC3)ncc([C@H]3CC[C@H](O)CC3)c2n1 (stereo partly drawn) [Compound 154] | ≤ 100 | +++ (a ratio of >100) | ≤ 100
3 | CCCC(C)Nc1ncc2c(N3CCC(NC)CC3)ncc([C@H]3CC[C@H](O)CC3)c2n1 (stereo partly drawn) [Compound 155] | ≤ 100 | +++ (a ratio of >100) | ≤ 100
4 | CCCC(C)Nc1ncc2c(N3CC[C@@H](N(C)C)C3)ncc([C@H]3CC[C@H](O)CC3)c2n1 (stereo partly drawn) [Compound 156] | ≤ 100 | ++ (a ratio of between 10 and 100) | ≤ 100
5 | CCCC(C)Nc1ncc2c(OC[C@H]3CC[C@@H](O)CC3)ncc([C@H]3CC[C@H](O)CC3)c2n1 (stereo partly drawn) [Compound 157] | ≤ 100 | ++ (a ratio of between 10 and 100) | ≤ 100
6 | CCCC(C)Nc1ncc2c(NC3CCNCC3)ncc([C@H]3CC[C@H](O)CC3)c2n1 (stereo partly drawn) [Compound 158] | ≤ 100 | +++ (a ratio of >100) | ≤ 100
7 | CCCC(C)Nc1ncc2c(N3CC[C@H](N(C)C)C3)ncc([C@H]3CC[C@H](O)CC3)c2n1 (stereo partly drawn) [Compound 159] | ≤ 100 | ++ (a ratio of between 10 and 100) | ≤ 100
8 | CCCC(C)Nc1ncc2c(OC[C@H]3CC[C@H](O)CC3)ncc([C@H]3CC[C@H](O)CC3)c2n1 (stereo partly drawn) [Compound 160] | ≤ 100 | +++ (a ratio of >100) | ≤ 100
9 | CCCC(C)Nc1ncc2c(OC3CC(C)(C)N(C)C(C)(C)C3)ncc([C@H]3CC[C@H](O)CC3)c2n1 (stereo partly drawn) [Compound 161] | ≤ 100 | +++ (a ratio of >100) | ≤ 100
10 | CN1CCC(Nc2ncc3c(OC4CCNCC4)ncc([C@H]4CC[C@H](O)CC4)c3n2)C1=O (stereo partly drawn) [Compound 162] | 1000 to 10000 | + (a ratio of >2.0 and <10) | 1000 to 10000
11 | Cc1nccn1CCNc1ncc2c(OC3CCNCC3)ncc([C@H]3CC[C@H](O)CC3)c2n1 [Compound 163] | 1000 to 10000 | + (a ratio of >2.0 and <10) | ≤ 100
12 | O[C@H]1CC[C@H](c2cnc(OC3CCNCC3)c3cnc(NC4CCC(F)(F)CC4)nc32)CC1 [Compound 164] | ≤ 100 | ++ (a ratio of between 10 and 100) | 100 to 1000
13 | CCCC(C)Nc1ncc2c(NC3CCN(C(=O)C(F)(F)F)CC3)ncc([C@H]3CC[C@H](O)CC3)c2n1 (stereo partly drawn) [Compound 165] | ≤ 100 | +++ (a ratio of >100) | ≤ 100
14 | CCCC(C)Nc1ncc2c(OC3CCNCC3)ncc([C@H]3CC[C@H](O)CC3)c2n1 (stereo partly drawn) [Compound 166] | ≤ 100 | +++ (a ratio of >100) | ≤ 100
15 | CC1CC(Nc2ncc3c(OC4CCNCC4)ncc([C@H]4CC[C@H](O)CC4)c3n2)C1 (stereo partly drawn) [Compound 167] | ≤ 100 | ++ (a ratio of between 10 and 100) | ≤ 100
16 | CC1CC(Nc2ncc3c(OC4CCNCC4)ncc([C@H]4CC[C@@H](O)CC4)c3n2)C1 (stereo partly drawn) [Compound 168] | ≤ 100 | ++ (a ratio of between 10 and 100) | ≤ 100

Row | Structure (SMILES) | IC50 (MERTK) [nM] | Mer/Flt3 ratio (FLT3 IC50/Mer IC50) (MERTK) | IC50 (TYRO3) [nM]
17 | CCCC(C)Nc1ncc2c(=O)n(CCN(C)C)cc([C@H]3CC[C@H](O)CC3)c2n1 (stereo partly drawn) [Compound 169] | ≤ 100 | +++ (a ratio of >100) | ≤ 100
18 | CCCC(C)Nc1ncc2c(OC3CCN(CCC(=O)N(C)C)CC3)ncc([C@H]3CC[C@H](O)CC3)c2n1 (stereo partly drawn) [Compound 170] | ≤ 100 | +++ (a ratio of >100) | ≤ 100
19 | CCC[C@H](C)Nc1ncc2c(OC3CCNCC3)ncc([C@H]3CC[C@H](O)CC3)c2n1 [Compound 171] | ≤ 100 | +++ (a ratio of >100) | ≤ 100
20 | CCCC(C)Nc1ncc2c(OC3CCN(CC(=O)N(C)C)CC3)ncc([C@H]3CC[C@H](O)CC3)c2n1 (stereo partly drawn) [Compound 172] | ≤ 100 | +++ (a ratio of >100) | ≤ 100
21 | CCCC(C)Nc1ncc2c(OC3CCN(CCOC)CC3)ncc([C@H]3CC[C@H](O)CC3)c2n1 (stereo partly drawn) [Compound 173] | ≤ 100 | +++ (a ratio of >100) | ≤ 100
22 | CCCC(C)Nc1ncc2c(O[C@@H]3C[C@H]4CC[C@@H](C3)O4)ncc([C@H]3CC[C@H](O)CC3)c2n1 (stereo partly drawn) [Compound 174] | ≤ 100 | ++ (a ratio of between 10 and 100) | 100 to 1000
23 | CCCC(C)Nc1ncc2c(O[C@H]3C[C@H]4CC[C@@H](C3)O4)ncc([C@H]3CC[C@H](O)CC3)c2n1 (stereo partly drawn) [Compound 175] | ≤ 100 | ++ (a ratio of between 10 and 100) | 100 to 1000
24 | CCCC(C)Nc1ncc2c(O[C@H]3C[C@@H](O)C3)ncc([C@H]3CC[C@H](O)CC3)c2n1 (stereo partly drawn) [Compound 176] | ≤ 100 | +++ (a ratio of >100) | ≤ 100
25 | CCCC(C)Nc1ncc2c(=O)n(CCN3CCOCC3)cc([C@H]3CC[C@H](O)CC3)c2n1 (stereo partly drawn) [Compound 177] | ≤ 100 | +++ (a ratio of >100) | ≤ 100
26 | CC(C)C(C)Nc1ncc2c(OC3CCNCC3)ncc([C@H]3CC[C@H](O)CC3)c2n1 (stereo partly drawn) [Compound 178] | ≤ 100 | +++ (a ratio of >100) | ≤ 100
27 | CCCC(C)Nc1ncc2c(N(C)C3CCNCC3)ncc([C@H]3CC[C@H](O)CC3)c2n1 (stereo partly drawn) [Compound 179] | ≤ 100 | ++ (a ratio of between 10 and 100) | ≤ 100
28 | CCCC(C)Nc1ncc2c(N3CCC[C@H](N(C)C)C3)ncc([C@H]3CC[C@H](O)CC3)c2n1 (stereo partly drawn) [Compound 180] | ≤ 100 | +++ (a ratio of >100) | ≤ 100
29 | CCCC(C)Nc1ncc2c(N3CC(N(C)C)C3)ncc([C@H]3CC[C@H](O)CC3)c2n1 (stereo partly drawn) [Compound 181] | ≤ 100 | ++ (a ratio of between 10 and 100) | > 10000
30 | CCCC(C)Nc1ncc2c(OCCN3CCOCC3)ncc([C@H]3CC[C@H](O)CC3)c2n1 (stereo partly drawn) [Compound 182] | ≤ 100 | ++ (a ratio of between 10 and 100) | 100 to 1000
31 | O[C@H]1CC[C@H](c2cnc(OC3CCNCC3)c3cnc(NC4CCCCC4)nc32)CC1 [Compound 183] | ≤ 100 | ++ (a ratio of between 10 and 100) | > 10000
